Marks after values point to notes of the source that are not given here.
System: C2C12 cell line
Assay: Dexamethasone-induced sarcopenia model in differentiated C2C12 myotubes, diameters of the myotubes (H&E stain, Image-Pro Plus)
Type: cell-based, mouse
Settings: 10 μM dexamethasone alone in 0.1% DMSO, 24 hours, C2C12 myotubes (negative control group)
Excerpt: Mouse skeletal myocytes (i.e., C2C12 cell line) were utilized to establish a sarcopenia model. An artificially synthetic corticosteroid, dexamethasone was utilized to establish the sarcopenia model. Dexamethasone could inhibit the immune system and thus was utilized as an anti-inflammation drug or an allergy drug. […] Thus, dexamethasone was used to induce muscular dystrophy for simulating sarcopenia in this Example. First, a growth medium [Dulbecco's modified minimal essential medium (DMEM) including 10% fetal bovine serum] was utilized to culture the C2C12 cell line under 37° C., 5% CO2, in which the start density of the C2C12 cell line was 1×10^5 to 2×10^5 cells/mL. […] The diameters of the myotubes were measured by using a commercial software (Image-Pro Plus software), and the results of statistical analysis on the diameters of the myotubes were shown in Table 1, in which the statistic method used to analyze the percentage of each items was paired sample t-test, and the symbols “#” and “*” represented significant differences compared to the blank control group and negative control group (p<0.05, n=60), respectively.

C[C@@H]1C[C@H]2[C@@H]3CCC4=CC(=O)C=C[C@]4(C)[C@@]3(F)[C@@H](O)C[C@]2(C)[C@@]1(O)C(=O)CO [dexamethasone]
Diameters of the myotubes: 19.98 ± 6.42# μm
